Data taken from PubChem BioAssay AID1919016 (Molecular Pharmacology Branch, DTP, NCI, 2023).
Where “and” joins values, the source holds several entries; their conditions need not be identical. Equal entries are not always repeated.

System: NCI-H196 complex spheroid growth, percent test/control
Assay: Anticancer human tumor NCI-H196 cell line growth inhibition [AhR];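 also: seven days of drug exposure starting three days after plating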;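 as to viability, T/C: 100% = DMSO vehicle control wells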
Settings: for viability, T/C: stronger effect = lower value
Source text: Multicellular complex tumor spheroid response to aryl hydrocarbon receptor antagonists in combination with a variety of drugs and investigational agents in selected tumor cell lines
The current study was undertaken to assess response to aryl hydrocarbon receptor antagonists in combination with standard-of-care drugs and investigational agents in solid tumor complex spheroid models. Complex spheroids include a stromal component modeled by human endothelial cells (HUVEC) and fibroblasts modeled by human mesenchymal stem cells (MSCs). The concentration ranges selected for each drug and investigational agent were based upon clinically achievable concentrations if the clinical Cmax of the agent was known.
Compounds. The drugs and investigational agents: BAY 2416964 (NSC825713), GNF351 (NSC835774), CH-223191 (NSC835775), CPI-455 (NSC825282), aza-TdCyd (NSC777586), decitabine (NSC127716), belinostat (NSC758774), entinostat (NSC756642), pevonedistat (NSC761192), tazemetostat (NSC777109), talazoparib (NSC765396), olaparib (NSC753686), selinexor (NSC780203), nedisertib (M3814, NSC802822), bortezomib (NSC756655), venetoclax (NSC766270), doxorubicin (NSC123127), elimusertib (BAY189344, NSC800525), ceralasertib (AZD6738, NSC777638), TAK-243 (NSC785004), alisertib (NSC759677), etoposide (NSC141540), topotecan (NSC609699), eribulin (NSC707389), gemcitabine (NSC613327), carboplatin (NSC241240), cisplatin (NSC119875), and SN-38 (NSC673596) were obtained from the National Cancer Institute (NCI) Developmental Therapeutics Program Chemical Repository (32). The FDA-approved anticancer drug set is available from the Developmental Therapeutics Program at https://dtp.cancer.gov/organization/dscb/obtaining/available plates.htm. […] The stock solutions were prepared in dimethyl sulfoxide (DMSO, Sigma-Aldrich, St. Louis, MO, cat. D2650), except for the platinum compounds which were prepared in saline (Quality Biological, Gaithersburg, MD, cat. 114-055-101), at 800-fold the tested concentration and stored at -70 degrees C prior to their use. All drugs and investigational agents were tested over a range starting from a high concentration at or near the clinical Cmax and decreasing in half-log increments. If the clinical Cmax for an agent had not been determined, the highest concentration tested was 10 microM (Table 1).
Cell Culture. All cells were maintained in an incubator at 37 degrees C and 5% CO2 with 95% humidity. The PDC lines were cultured according to standard operating procedures established by the NCI PDMR (https://pdmr.cancer.gov). Briefly, all PDCs were thawed and cultured in Matrigel-coated flasks prepared with a working solution of 1X Ham's F-12 nutrient mix, without supplementation (Invitrogen, Waltham, MA, cat. 11765054), 100 U/mL penicillin-streptomycin (Invitrogen, cat. 15140122), and 2.5% Matrigel (Corning Inc., Corning, NY, cat. 354248) for the first three passages. All PDCs were cultured in complete DMEM/F-12 media containing advanced DMEM/F-12 (Invitrogen, cat. 12634028), 4.9% defined fetal bovine serum, heat inactivated (HyClone Laboratories Inc., Logan, UT, cat. SH30070.03HI), 389 ng/mL hydrocortisone (Sigma-Aldrich, cat. H4001), 9.7 ng/mL human EGF recombinant protein (Invitrogen, cat. PHG0313), 23.4 microg/mL adenine (Sigma-Aldrich, cat. A2786), 97.3 U/mL penicillin-streptomycin (Invitrogen, cat. 15140122), 1.9 mM L-glutamine (Invitrogen, cat. 25030081), and 9.7 microM Y-27632 dihydrochloride (Tocris Bioscience, Bristol, United Kingdom, cat. 1254). The PDCs were cultured in complete DMEM/F12 media without 10 microM Y-27632 dihydrochloride for at least two passages prior to the screen. The established cell lines NCI-H1341 and […] were cultured in DMEM/F-12, HEPES (Invitrogen, cat. 11330032), 5% defined fetal bovine serum (HyClone Laboratories Inc., cat. SH30070.03), ITS premix universal culture supplement [insulin (5 microg/mL), transferrin (5 microg/mL), and selenious acid (5 ng/mL)] […]

With `COc1cc(Nc2ncc3c(n2)-c2ccc(Cl)cc2C(c2c(F)cccc2OC)=NC3)ccc1C(=O)O` the viability, T/C (compound 0.0316 µM) was 91.6% and 84.6% and 104%, the viability, T/C (compound 0.1 µM) was 92.1% and 90.5% and 106% and the viability, T/C (compound 0.316 µM) was 109% and 92.9% and 107%. The viability, T/C (compound 1 µM) was 117% and 90.2% and 116%, the viability, T/C (compound 3.16 µM) was 114% and 120% and 121% and the viability, T/C (compound 10 µM) was 125% and 108% and 132%. For the same compound, the IC50 (curve of compound) was over 10 µM.
`COc1cc(C2c3cc4c(cc3C(OC3OC5COC(C)OC5C(O)C3O)C3COC(=O)C23)OCO4)cc(OC)c1O` (configuration not stated) + CC(CO)NC(=O)c1cc(-c2ccc(Cl)cc2)nn(-c2cnn(C)c2)c1=O showed an IC50 (curve of first compound, second compound 0.1 µM) of over 10 µM, an IC50 (curve of first compound, second compound 0.316 µM) of over 10 µM and an IC50 (curve of first compound, second compound 1 µM) of over 10 µM. For the same compound, the IC50 (curve of first compound, second compound 3.16 µM) was over 10 µM, the IC50 (curve of first compound, second compound 10 µM) was over 10 µM and the viability, T/C (second compound 0.1 µM, first compound 0.0316 µM) was 113%. The viability, T/C (second compound 0.1 µM, first compound 0.1 µM) was 116%, the viability, T/C (second compound 0.1 µM, first compound 0.316 µM) was 101% and the viability, T/C (second compound 0.1 µM, first compound 1 µM) was 112%. For the same compound, the viability, T/C (second compound 0.1 µM, first compound 3.16 µM) was 104%, the viability, T/C (second compound 0.1 µM, first compound 10 µM) was 101% and the viability, T/C (second compound 0.316 µM, first compound 0.0316 µM) was 109%. It also gave a viability, T/C (second compound 0.316 µM, first compound 0.1 µM) of 118%, a viability, T/C (second compound 0.316 µM, first compound 0.316 µM) of 102% and a viability, T/C (second compound 0.316 µM, first compound 1 µM) of 104%. For the same compound, the viability, T/C (second compound 0.316 µM, first compound 3.16 µM) was 109%, the viability, T/C (second compound 0.316 µM, first compound 10 µM) was 94.9% and the viability, T/C (second compound 1 µM, first compound 0.0316 µM) was 117%. For the same compound, the viability, T/C (second compound 1 µM, first compound 0.1 µM) was 106%, the viability, T/C (second compound 1 µM, first compound 0.316 µM) was 119% and the viability, T/C (second compound 1 µM, first compound 1 µM) was 106%. The viability, T/C (second compound 1 µM, first compound 3.16 µM) was 110%, the viability, T/C (second compound 1 µM, first compound 10 µM) was 105% and the viability, T/C (second compound 3.16 µM, first compound 0.0316 µM) was 103%. For the same compound, the viability, T/C (second compound 3.16 µM, first compound 0.1 µM) was 110%, the viability, T/C (second compound 3.16 µM, first compound 0.316 µM) was 119% and the viability, T/C (second compound 3.16 µM, first compound 1 µM) was 110%. It also gave a viability, T/C (second compound 3.16 µM, first compound 3.16 µM) of 117%, a viability, T/C (second compound 3.16 µM, first compound 10 µM) of 97.9% and a viability, T/C (second compound 10 µM, first compound 0.0316 µM) of 126%. For the same compound, the viability, T/C (second compound 10 µM, first compound 0.1 µM) was 128%, the viability, T/C (second compound 10 µM, first compound 0.316 µM) was 114% and the viability, T/C (second compound 10 µM, first compound 1 µM) was 109%. For the same compound, the viability, T/C (second compound 10 µM, first compound 3.16 µM) was 115% and the viability, T/C (second compound 10 µM, first compound 10 µM) was 95.6%.
